biological target: Glutamine--fructose-6-phosphate aminotransferase [isomerizing] (Candida albicans (strain SC5314 / ATCC MYA-2876), UniProt P53704); assay: Enzyme Assay; conditions: pH 6.85
Excerpt: Two assays of GlcN-6-P synthase activity were used 1)determination of GlcN-6_P formation by the modified Elson-Morgan procedure and 2) continuous quantitation of glutamate in a coupled assay with glutamate dehydrogenase in the presence of acetylpyridine adenine dinucleotide.

Glutamine--fructose-6-phosphate aminotransferase [isomerizing], sequence (P53704 whole entry): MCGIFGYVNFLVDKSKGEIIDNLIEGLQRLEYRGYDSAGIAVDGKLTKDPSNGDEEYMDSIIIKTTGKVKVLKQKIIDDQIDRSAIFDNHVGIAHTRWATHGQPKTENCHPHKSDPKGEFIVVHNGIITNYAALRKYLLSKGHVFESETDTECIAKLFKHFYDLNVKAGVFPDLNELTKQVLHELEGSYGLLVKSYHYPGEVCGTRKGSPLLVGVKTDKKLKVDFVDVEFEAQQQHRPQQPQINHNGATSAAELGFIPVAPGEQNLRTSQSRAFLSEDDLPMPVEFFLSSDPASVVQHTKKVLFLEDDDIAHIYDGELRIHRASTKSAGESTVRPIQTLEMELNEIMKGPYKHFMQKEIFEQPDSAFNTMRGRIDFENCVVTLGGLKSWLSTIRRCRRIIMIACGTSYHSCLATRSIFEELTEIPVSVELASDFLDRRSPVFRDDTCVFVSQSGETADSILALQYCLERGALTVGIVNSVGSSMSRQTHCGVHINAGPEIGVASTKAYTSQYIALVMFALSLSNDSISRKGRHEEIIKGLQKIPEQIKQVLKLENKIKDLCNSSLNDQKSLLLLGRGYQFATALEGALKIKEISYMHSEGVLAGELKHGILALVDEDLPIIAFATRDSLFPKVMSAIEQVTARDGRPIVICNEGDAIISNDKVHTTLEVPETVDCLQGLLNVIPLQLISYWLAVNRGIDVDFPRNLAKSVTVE

**Q.** What does the source list for N[C@@H](CCP(=O)(O)O)C(=O)O?
**A.** IC50: 26 mM; Ki: 12 mM

**Q.** Which results are given for COC(=O)C(N)CCP(=O)(OC)N(C)C [GlcN-6-P synthase inhibitor, 8 (racemic mixture)]?
**A.** IC50: 4.4 mM; Ki: 1.3 mM

**Q.** Which IC50 does the source give for CO[P@@](=O)(O)CC[C@H](N)C(=O)O [GlcN-6-P synthase inhibitor, 5 (racemic mixture)] here?
**A.** 2 mM

**Q.** What about the Ki of the same compound?
**A.** 0.9 mM

**Q.** Which IC50 does the source give for COP(=O)(CCC(N)C(=O)O)OC [GlcN-6-P synthase inhibitor, 3 (racemic mixture)] here?
**A.** > 50 mM

**Q.** CCN(CC)P(=O)(CCC(N)C(=O)OC)OC [GlcN-6-P synthase inhibitor, 9 (racemic mixture)] was tested. Which IC50 did it give?
**A.** 3.6 mM

**Q.** What about the Ki of the same compound?
**A.** 0.94 mM

**Q.** With COC(=O)C(N)CNS(C)(=O)=O (racemic) [GlcN-6-P synthase inhibitor, 12 (racemic mixture)] as the compound, how does the IC50 read?
**A.** > 50 mM

**Q.** How did the IC50 turn out when COC(=O)C(N)CCS(C)(=O)=O (racemic) [GlcN-6-P synthase inhibitor, 11 (racemic mixture)] was run?
**A.** > 50 mM

**Q.** For CCNP(=O)(CCC(N)C(=O)OC)OC [GlcN-6-P synthase inhibitor, 7 (racemic mixture)], which IC50 is on record?
**A.** 7.8 mM

**Q.** And the Ki?
**A.** 4.4 mM

**Q.** CCN(CC)S(=O)(=O)CCC(N)C(=O)OC (racemic) [GlcN-6-P synthase inhibitor, 15 (racemic mixture)] was tested. Which IC50 did it give?
**A.** 1.6 mM

**Q.** And the Ki?
**A.** 0.6 mM

**Q.** For COC(=O)C(N)CCS(N)(=O)=O (racemic) [GlcN-6-P synthase inhibitor, 14 (racemic mixture)], which IC50 is on record?
**A.** 5.5 mM

**Q.** And the Ki?
**A.** 2.8 mM

**Q.** How did the IC50 turn out when COC(=O)C(N)CCP(N)(=O)OC [GlcN-6-P synthase inhibitor, 6 (racemic mixture)] was run?
**A.** 25 mM

**Q.** What about the Ki of the same compound?
**A.** 11 mM

**Q.** How did the IC50 turn out when COC(=O)C(N)CCP(=O)(O)OC [GlcN-6-P synthase inhibitor, 4 (racemic mixture)] was run?
**A.** 2.6 mM

**Q.** And the Ki?
**A.** 1.2 mM

**Q.** Which IC50 does the source give for COC(=O)C(N)CCP(=O)(OC)OC [GlcN-6-P synthase inhibitor, 2 (racemic mixture)] here?
**A.** > 50 mM

**Q.** Which IC50 does the source give for COC(=O)C(N)CCS(C)(=N)=O [GlcN-6-P synthase inhibitor, 13 (racemic mixture)] here?
**A.** 2.8 mM

**Q.** And the Ki?
**A.** 1.5 mM

Reference: BindingDB's records for doi:10.7270/Q2RB7351 (Technical University of Gdansk, 1997)
